# How the values were obtained:
# [1] = target: SARS-CoV-2 Main Protease (SARS-CoV-2) (UniProt P0DTD1)
# [2] = target: SARS-CoV-2 Main Protease (SARS-CoV-2) (UniProt P0DTD1); remark: listed apart in the source
structure (smiles),measurement,setting,value
CC(C)c1scnc1NC(=O)C1CCOc2ccc(Cl)cc21 (centres undefined),inhibition,[1]; 50.0 µM,0%
same,relative solubility at 20 uM,,1
same,relative solubility at 100 uM,,0.99
same,inhibition,[2]; 20.0 µM,10%
same,inhibition,[2]; 50.0 µM,6.85%
Cc1cnn(-c2ccncc2NC(=O)Cn2cc(C)c3ccccc32)c1,inhibition,[1]; 50.0 µM,0%
same,relative solubility at 20 uM,,0.59
same,relative solubility at 100 uM,,0.1
same,inhibition,[2]; 20.0 µM,-8.61%
same,inhibition,[2]; 50.0 µM,-0.417%
Cc1noc(C)c1CS(=O)(=O)Cc1cccc(Cl)c1,inhibition,[1]; 50.0 µM,0%
same,relative solubility at 20 uM,,0.99
same,relative solubility at 100 uM,,1
same,inhibition,[2]; 20.0 µM,1.07%
same,inhibition,[2]; 50.0 µM,-0.0149%
COCCc1ccc(Cl)cc1CN1CCN(C(=O)CCl)CC1,IC50,[1],2420 nM
same,inhibition,[1]; 50.0 µM,100%
same,relative solubility at 20 uM,,1
same,relative solubility at 100 uM,,0.99
same,inhibition,[2]; 20.0 µM,96.1%
same,inhibition,[2]; 50.0 µM,95.1%
O=C(NCc1ccno1)c1ccccc1OC1CCCCC1,inhibition,[1]; 20.0 µM,0%
same,relative solubility at 20 uM,,1
same,relative solubility at 100 uM,,1
same,inhibition,[2]; 20.0 µM,4.09%
same,inhibition,[2]; 50.0 µM,5.82%
Cc1ccc(NC2CCN(c3ccc(S(N)(=O)=O)cc3)CC2)cc1,inhibition,[1]; 20.0 µM,28.4%
same,inhibition,[1]; 50.0 µM,40%
same,relative solubility at 20 uM,,0.92
same,relative solubility at 100 uM,,0.84
same,inhibition,[2]; 20.0 µM,2.67%
same,inhibition,[2]; 50.0 µM,5.62%
CN(C(=O)Cn1nnc2ccccc21)c1ccc(Oc2ccc(C(F)(F)F)cn2)cc1,inhibition,[1]; 50.0 µM,19.2%
same,relative solubility at 20 uM,,0.98
same,relative solubility at 100 uM,,0.87
same,inhibition,[2]; 20.0 µM,30.2%
same,inhibition,[2]; 50.0 µM,59.4%
CCC(C)(C)CCN(Cc1ccsc1)C(=O)Cn1nnc2ccccc21,inhibition,[1]; 20.0 µM,-4.79%
same,inhibition,[1]; 50.0 µM,40.1%
same,relative solubility at 20 uM,,0.99
same,relative solubility at 100 uM,,0.73
same,inhibition,[2]; 50.0 µM,48.3%
Cc1ccncc1NC(=O)[C@@]12COC[C@@H]1C2 (stereo in doubt),inhibition,[1]; 50.0 µM,0%
same,relative solubility at 20 uM,,1
same,relative solubility at 100 uM,,1
same,inhibition,[2]; 20.0 µM,-0.441%
same,inhibition,[2]; 50.0 µM,-2.2%
COc1ccc(-c2cccc(S(=O)(=O)N3CCN(C(C)=O)CC3)c2)cc1,inhibition,[1]; 50.0 µM,0%
same,relative solubility at 20 uM,,0.95
same,relative solubility at 100 uM,,0.93
same,inhibition,[2]; 20.0 µM,-3.55%
same,inhibition,[2]; 50.0 µM,2.93%
Cc1ccncc1NC(=O)CC(C)C(C)C (centres undefined),inhibition,[1]; 50.0 µM,6.99%
same,relative solubility at 20 uM,,1
same,relative solubility at 100 uM,,1
same,inhibition,[2]; 20.0 µM,-5.58%
same,inhibition,[2]; 50.0 µM,29.2%
C=CC(=O)N(c1ccc(C(C)OC)cc1)C(C(=O)Nc1ccc(OC)cc1C)c1cccnc1 (centres undefined),inhibition,[1]; 20.0 µM,0%
same,relative solubility at 20 uM,,0.99
same,relative solubility at 100 uM,,0.97
same,inhibition,[2]; 20.0 µM,2.91%
same,inhibition,[2]; 50.0 µM,6.9%
O=C(NCc1cnn2ccccc12)c1cccnc1OCCO,inhibition,[1]; 20.0 µM,0%
same,inhibition,[1]; 50.0 µM,0%
same,relative solubility at 20 uM,,1
same,relative solubility at 100 uM,,1.01
same,inhibition,[2]; 20.0 µM,-18.2%
same,inhibition,[2]; 50.0 µM,-28.9%
CCC(C)CC(=O)N1CCCC(NC(=O)Cn2c(C)cc(C)nc2=O)CC1 (centres undefined),inhibition,[1]; 50.0 µM,-29.6%
same,relative solubility at 20 uM,,0.98
same,relative solubility at 100 uM,,1
same,inhibition,[2]; 20.0 µM,-4.95%
same,inhibition,[2]; 50.0 µM,-19.4%
Cc1ncncc1NC(=O)C(c1cccc(Cl)c1)C(C)C (centres undefined),inhibition,[1]; 50.0 µM,46.5%
same,relative solubility at 20 uM,,1
same,relative solubility at 100 uM,,0.99
same,inhibition,[2]; 20.0 µM,3.52%
same,inhibition,[2]; 50.0 µM,20.6%
C=CC(=O)N(c1ccc(S(F)(F)(F)(F)F)cc1)C(C(=O)Nc1c(C)cccc1CC)c1cccnc1 (centres undefined),inhibition,[1]; 20.0 µM,4.69%
same,relative solubility at 20 uM,,0.85
same,relative solubility at 100 uM,,0.73
same,inhibition,[2]; 20.0 µM,3.13%
same,inhibition,[2]; 50.0 µM,7.07%
O=C(Cc1cccc(Cl)c1)Nn1cnc2ccccc2c1=O,inhibition,[1]; 50.0 µM,0%
same,relative solubility at 20 uM,,1
same,relative solubility at 100 uM,,1
same,inhibition,[2]; 20.0 µM,70.9%
same,inhibition,[2]; 50.0 µM,87%
O=C1Nc2ccc(Br)cc2C1=O,IC50,[1],30300 nM
same,inhibition,[1]; 50.0 µM,66.1%
same,relative solubility at 20 uM,,1
same,relative solubility at 100 uM,,0.99
same,inhibition,[2]; 20.0 µM,-2.12%
same,inhibition,[2]; 50.0 µM,-1.05%
CC(=O)N[C@@H](C)C(=O)Nc1cnccc1C (stereo in doubt),inhibition,[1]; 50.0 µM,-0.127%
same,relative solubility at 20 uM,,1
same,relative solubility at 100 uM,,1
same,inhibition,[2]; 20.0 µM,-12.3%
same,inhibition,[2]; 50.0 µM,-7.91%
O=C(NCCc1cccc2ccccc12)c1cc(=O)[nH]c2ccccc12,inhibition,[1]; 50.0 µM,7.36%
same,relative solubility at 20 uM,,0.87
same,relative solubility at 100 uM,,0.73
same,inhibition,[2]; 20.0 µM,-40.9%
same,inhibition,[2]; 50.0 µM,4.42%
Cc1ccncc1NC(=O)CCc1ccc(F)cc1,inhibition,[1]; 50.0 µM,6.51%
same,relative solubility at 20 uM,,1
same,relative solubility at 100 uM,,1
same,inhibition,[2]; 20.0 µM,1.95%
same,inhibition,[2]; 50.0 µM,5.92%
O=C(COc1ccccc1)NCCc1ccccc1,inhibition,[1]; 20.0 µM,0%
same,inhibition,[1]; 50.0 µM,0%
same,relative solubility at 20 uM,,1
same,relative solubility at 100 uM,,1
same,inhibition,[2]; 20.0 µM,-0.178%
same,inhibition,[2]; 50.0 µM,-0.0738%
Cc1cccc(CS(=O)(=O)N2CCC(C(N)=O)CC2)c1,inhibition,[1]; 50.0 µM,0%
same,relative solubility at 20 uM,,1.01
same,relative solubility at 100 uM,,1.01
same,inhibition,[2]; 20.0 µM,-20.4%
same,inhibition,[2]; 50.0 µM,0.138%
O=C(CCl)N1CCCC(N(CC2CCCCC2)C2CCC(O)CC2)C1 (centres undefined),inhibition,[1]; 50.0 µM,24.9%
same,relative solubility at 20 uM,,1
same,relative solubility at 100 uM,,1
same,inhibition,[2]; 20.0 µM,-11.8%
same,inhibition,[2]; 50.0 µM,7.36%
O=C(c1cc(=O)[nH]c2cc(F)ccc12)N1CCN(S(=O)(=O)c2ccccc2)CC1,inhibition,[1]; 50.0 µM,0%
same,relative solubility at 20 uM,,0.98
same,relative solubility at 100 uM,,0.99
same,inhibition,[2]; 20.0 µM,12.6%
same,inhibition,[2]; 50.0 µM,30.7%
O=C(Nc1ccccc1)c1cc(Cl)ccc1O,inhibition,[1]; 20.0 µM,0%
same,relative solubility at 20 uM,,1
same,relative solubility at 100 uM,,0.89
same,inhibition,[2]; 20.0 µM,3.75%
same,inhibition,[2]; 50.0 µM,8.41%
O=C(CCl)N1CCN(Cc2cc(Cl)cc(Cl)c2)CC1,IC50,[1],475 nM
same,inhibition,[1]; 20.0 µM,100%
same,inhibition,[1]; 50.0 µM,100%
same,relative solubility at 20 uM,,1
same,relative solubility at 100 uM,,1
same,inhibition,[2]; 20.0 µM,76.9%
same,inhibition,[2]; 50.0 µM,69.1%
O=C(Cc1ccccc1)Nc1cccc(OC2CC(=O)N2)c1 (centres undefined),inhibition,[1]; 50.0 µM,0%
same,relative solubility at 20 uM,,1
same,relative solubility at 100 uM,,1
same,inhibition,[2]; 20.0 µM,-2.28%
same,inhibition,[2]; 50.0 µM,-0.808%
C=CC(=O)N(c1ccc2c(ccn2C)c1)C(C(=O)NC(C)(C)C)c1cccnc1 (centres undefined),inhibition,[1]; 20.0 µM,0%
same,relative solubility at 20 uM,,1.01
same,relative solubility at 100 uM,,1
same,inhibition,[2]; 20.0 µM,-17.6%
same,inhibition,[2]; 50.0 µM,-18%
CN1CCC(C(=O)NC2CCCCC2NC(=O)c2ccccc2)CC1 (centres undefined),inhibition,[1]; 20.0 µM,0%
same,inhibition,[1]; 50.0 µM,0%
same,relative solubility at 20 uM,,0.98
same,relative solubility at 100 uM,,0.99
same,inhibition,[2]; 50.0 µM,-15.4%
N#Cc1ccc(S(=O)(=O)N2CCN(C(=O)c3cc(=O)[nH]c4ccc(F)cc34)CC2)cc1,inhibition,[1]; 50.0 µM,33.7%
same,relative solubility at 20 uM,,0.98
same,relative solubility at 100 uM,,0.98
same,inhibition,[2]; 20.0 µM,2.67%
same,inhibition,[2]; 50.0 µM,10.4%
C=CC(=O)N(C1COC2(CCC2)C1)C(C(=O)NC(C)(C)C)c1cccnc1 (centres undefined),inhibition,[1]; 20.0 µM,0%
same,relative solubility at 20 uM,,0.97
same,relative solubility at 100 uM,,0.96
same,inhibition,[2]; 20.0 µM,12.6%
same,inhibition,[2]; 50.0 µM,13.4%
O=C(Nc1cccnc1)Nc1cccc(Cl)c1,inhibition,[1]; 50.0 µM,44.1%
same,relative solubility at 20 uM,,0.98
same,relative solubility at 100 uM,,0.99
same,inhibition,[2]; 20.0 µM,12.9%
same,inhibition,[2]; 50.0 µM,30.9%
Cc1cnn(C)c1NC(=O)Cc1cccc(Cl)c1,inhibition,[1]; 50.0 µM,23.1%
same,relative solubility at 20 uM,,0.99
same,relative solubility at 100 uM,,0.99
same,inhibition,[2]; 20.0 µM,3.11%
same,inhibition,[2]; 50.0 µM,5.06%
Cc1ccnc(C)c1NC(=O)C1CC2CC2C1 (centres undefined),inhibition,[1]; 50.0 µM,0%
same,relative solubility at 20 uM,,1
same,relative solubility at 100 uM,,1
same,inhibition,[2]; 20.0 µM,10.2%
same,inhibition,[2]; 50.0 µM,15.6%
O=C(NCc1cnccn1)c1sc2cccc(F)c2c1COc1ccccc1,inhibition,[1]; 20.0 µM,0%
same,inhibition,[1]; 50.0 µM,-0.855%
same,relative solubility at 20 uM,,0.95
same,relative solubility at 100 uM,,0.44
same,inhibition,[2]; 20.0 µM,-1.73%
same,inhibition,[2]; 50.0 µM,6.32%
C=CC(=O)N(c1ccc(C(C)OC)cc1)C(C(=O)Nc1c(C)cccc1CC)c1cccnc1 (centres undefined),inhibition,[1]; 20.0 µM,0%
same,relative solubility at 20 uM,,0.96
same,relative solubility at 100 uM,,0.87
same,inhibition,[2]; 20.0 µM,5.9%
same,inhibition,[2]; 50.0 µM,3.94%
O=C1CC[C@H](C(=O)Nc2cccc(Br)c2)N1 (stereo in doubt),inhibition,[1]; 50.0 µM,0%
same,relative solubility at 20 uM,,1
same,relative solubility at 100 uM,,1
same,inhibition,[2]; 20.0 µM,15%
same,inhibition,[2]; 50.0 µM,5.83%
O=C1N(Cc2cccc(Cl)c2)CCN1c1nccc2n[nH]cc12,IC50,[1],2910 nM
same,inhibition,[1]; 50.0 µM,88.8%
same,relative solubility at 20 uM,,0.92
same,relative solubility at 100 uM,,0.93
same,inhibition,[2]; 20.0 µM,72.1%
same,inhibition,[2]; 50.0 µM,84.1%

# From the COVID Moonshot data (paper PMC11187573), “Identification of SARS-CoV-2 Mpro inhibitors through deep reinforcement learning for de novo drug design and computational chemistry approaches” (RSC Medicinal Chemistry, 2024)
